As a reminder, the IC50 is the midpoint of a concentration-inhibition curve. A word on the Ki: it is a dissociation constant, usually derived from enzyme kinetics or from competition with a known ligand.

Data set [1] relates to Barrett's stem cells (BE stem cells, Krt7+). Nature of the data set: High throughput chemical screening and dose response on GFP-labeled stem cells. It is filed as cell-based, human. To be noted: for lethality towards Barrett's stem cells: screened in the background of 1 μM Ponatinib.
Data set [2] has as its system esophageal squamous stem cells (ESO stem cells, Krt5+). The data set is described as above. In kind it is cell-based, human. To be noted: for effect on Esophageal stem cells: in the presence of 1 μM Ponatinib.
For the next data set, the target named is T1, STAT1 (Homo sapiens, UniProt P42224).
T1 sequence (P42224 1-750): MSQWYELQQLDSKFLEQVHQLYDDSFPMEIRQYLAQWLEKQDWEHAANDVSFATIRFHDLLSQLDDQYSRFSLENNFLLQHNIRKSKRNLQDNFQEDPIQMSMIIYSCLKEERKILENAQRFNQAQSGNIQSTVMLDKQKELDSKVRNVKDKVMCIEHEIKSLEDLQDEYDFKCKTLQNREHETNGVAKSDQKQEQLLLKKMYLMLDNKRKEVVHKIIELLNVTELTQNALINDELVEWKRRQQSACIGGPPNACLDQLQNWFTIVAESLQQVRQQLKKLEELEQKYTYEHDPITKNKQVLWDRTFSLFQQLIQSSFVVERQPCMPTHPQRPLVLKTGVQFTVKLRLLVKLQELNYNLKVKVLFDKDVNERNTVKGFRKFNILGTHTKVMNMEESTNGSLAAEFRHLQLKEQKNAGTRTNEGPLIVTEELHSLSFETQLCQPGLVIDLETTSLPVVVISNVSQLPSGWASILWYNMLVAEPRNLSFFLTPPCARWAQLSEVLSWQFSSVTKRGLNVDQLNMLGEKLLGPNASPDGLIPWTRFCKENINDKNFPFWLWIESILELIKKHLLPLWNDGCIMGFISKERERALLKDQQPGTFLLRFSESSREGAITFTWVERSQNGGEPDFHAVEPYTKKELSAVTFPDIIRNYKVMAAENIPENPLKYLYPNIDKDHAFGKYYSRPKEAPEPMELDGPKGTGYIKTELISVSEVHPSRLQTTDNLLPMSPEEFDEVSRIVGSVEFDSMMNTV
Particulars: cited from earlier work.

The next data set relates to 3T3-J2 feeder cells. Nature of the data set: Lethality of feeder cells during treatment. In kind it is cell-based. To be noted: combination with Ponatinib. How it is done: It was next hypothesized that one chemical in our libraries could function with Ponatinib in a synergistic manner to specifically eradicate Barrett's stem cells while protecting and promoting esophageal stem cells. The same libraries were screened in the background of 1 μM Ponatinib. […] Among them, Adefovir Dipivoxil is a FDA approved drug, CEP-18770 and Qizartinib are in clinical trials. […] Their differential effects on Barrett's stem cells and Esophageal stem cells were validated in a dosage dependent manner (FIG. 2C; FIG. 3F).
The GFP-tagged cell lines will be seeded on multiple 384 well plates (Griener Bio-One, USA) (varying according to number of compounds in a library) with a feeder layer of irradiated 3T3-J2 fibroblast cells. The stem cell will be allowed to grow until they divide to become 4-5 cells within a colony. Afterwards they will be transported for treatment with selected chemical library (1 μM) to High Throughput Research and Screening Center at Institute of Biosciences and Technology (Houston, Tex.), Texas A&M University. Positive and negative control lanes will be allocated within each plate. […] The cells will be allowed to grow for 6 days at 37° C., 7.5% CO2 incubator after treatment. After the cells in the control lanes are at good confluency, the cells will be prepared for imaging. […]

Data set [3] concerns BE, dysplasia and cancer stem cells. Nature of the data set: 3D (ALI) culture of patient-matched BE, dysplasia and cancer stem cells. It is filed as cell-based, human. To be noted: combined with Ponatinib. The source says: FIG. 5B. Left, Scanned images of top view of BE, dysplasia and cancer stem cells (green) generated ALI structures in the presence of absence of drug combinations.

Data set [4] concerns Barrett's stem cells and Esophageal stem cells. Put plainly: Co-culture of Barrett's stem cell lines and Esophageal stem cells. Particulars: in the presence of Ponatinib. It is filed as cell-based, human.
Data set [5] concerns Barrett's stem cells and esophageal squamous stem cells xenograft. Nature of the data set: Mouse xenograft of co-injected esophageal squamous and GFP labeled Barrett's stem cells. It is filed as in vivo, mice. The source says:
The effect of these chemicals on BE in a xenograft model was further examined. The esophageal squamous stem cells and GFP labeled Barrett's stem cells were mixed and co-injected into the immunodeficient mice. […] Two weeks following the treatment, the xenografts were collected and examined through histology analysis and clonogenic analysis.

The subject of data set [6] is Barrett's, dysplasia or EAC stem cells. Nature of the data set: Co-culture of esophageal stem cells with Barrett's, dysplasia or EAC stem cells. It is filed as cell-based, human. To be noted: together with 1 μM Ponatinib. The procedure:
FIG. 6. Patient-matched BE, dysplasia and cancer stem cells (Krt7+, Green) were mixed with Krt5+ (red) ESO cells and co-cultured for five days and then treated with seven selected drugs together with 1 μM Ponatinib.
BE has been known to be the precursor of the dysplastic and cancerous lesions of EAC. […] Moreover, PCA analysis of Barrett's stem cells derived from 12 patients together with dysplasia, cancer and Esophageal squamous stem cells confirmed that the stem cells of dysplasia and cancer shared very similar gene expression with Barrett's stem cells (FIGS. 4A & B). […] The effects of the eight drug hits in combination with Ponatinib were tested in the cell culture of co-seeding esophageal stem cells and Barrett's, dysplasia or EAC stem cells. […] Given these three entities always co-exist in patients with EAC, our strategies of eradicating all of them could help to eliminate the chance of recurrence of EAC patients drastically.

The subject of data set [7] is tryptic and peptidylglutamyl activities of the proteosome. Particulars: cited from earlier work.
For data set [8], the system named is dysplasia and cancer stem cells. Nature of the data set: Mice xenografted with dysplasia and cancer stem cells. It is filed as in vivo. Particulars: with Ponatinib. From the text:
FIG. 5C. Schematic of in vivo validation of drug combinations in mice xenografted with dysplasia and cancer stem cells. Following the treatment, the xenografts were processed for histological analysis or clonogenic assays to detect the existence of stem cells.

The subject of data set [9] is chymotrypsin-like activity of the proteasome. Particulars: cellular; cited from earlier work.
Data set [10] concerns chymotrypsin-like activity of proteasome. Particulars: cited from earlier work.
In data set [11] the test system is Barrett's stem cells (GFP) and esophageal squamous stem cells (RFP). Nature of the data set: 3D air-liquid interface (ALI) co-culture of Barrett's and esophageal stem cells. It is filed as cell-based, human. To be noted: in the presence of Ponatinib. The procedure: A 3D culture model was generated to mimic Barrett's Esophagus in vitro. The esophageal squamous stem cells and Barrett's stem cells were co-cultured in the transwell insert. Following the creation of air-liquid interface, it was observed that the BE islands located among well-differentiated squamous epithelium that well recapitulated the histology of human BE in the patient. Given the similarity of this artificial model and human pathology, the hits were tested in this system to further validate them. […] The esophageal squamous stem cells were labeled with red fluorescent protein (RFP) while Barrett's stem cells were labeled with green fluorescent protein (GFP). Without the treatment, it was observed that a mixture of GFP and RFP labeled cells in culture.

In a further data set the target is human GSK3α (Homo sapiens, UniProt P49840). To be noted: cited from earlier work.
The target of data set [12] is ERBB2 phosphorylation (T798I) (Homo sapiens, UniProt P04626, T798I). Particulars: cited from earlier work.
Data set [13] concerns taxol-resistant ovarian stem cells. Put plainly: Taxol-resistant ovarian stem cell xenograft animal models. In kind it is in vivo. Particulars: combination with ponatinib.
Data set [14] has the same test system. Nature of the data set: Killing of taxol-resistant ovarian stem cells in vitro. In kind it is cell-based. To be noted: combination with ponatinib.

Entries after “also recorded” stand apart in the source; their conditions may differ.

Chain of human GSK3α (P49840 whole entry): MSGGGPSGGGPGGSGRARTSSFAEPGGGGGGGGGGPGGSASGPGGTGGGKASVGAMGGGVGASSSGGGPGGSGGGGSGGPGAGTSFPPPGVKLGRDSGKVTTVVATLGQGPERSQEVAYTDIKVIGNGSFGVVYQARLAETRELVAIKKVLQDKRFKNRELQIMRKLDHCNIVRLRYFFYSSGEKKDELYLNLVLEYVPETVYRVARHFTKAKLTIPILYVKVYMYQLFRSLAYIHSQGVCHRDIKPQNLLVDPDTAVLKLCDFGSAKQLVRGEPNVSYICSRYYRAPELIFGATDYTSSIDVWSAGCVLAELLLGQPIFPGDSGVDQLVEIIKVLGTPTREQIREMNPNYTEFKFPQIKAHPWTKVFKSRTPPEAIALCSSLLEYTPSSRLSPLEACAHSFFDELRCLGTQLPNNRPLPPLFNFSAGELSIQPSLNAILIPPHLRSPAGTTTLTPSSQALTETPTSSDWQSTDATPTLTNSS
Chain of ERBB2 phosphorylation (T798I) (P04626 23-1255 T798I): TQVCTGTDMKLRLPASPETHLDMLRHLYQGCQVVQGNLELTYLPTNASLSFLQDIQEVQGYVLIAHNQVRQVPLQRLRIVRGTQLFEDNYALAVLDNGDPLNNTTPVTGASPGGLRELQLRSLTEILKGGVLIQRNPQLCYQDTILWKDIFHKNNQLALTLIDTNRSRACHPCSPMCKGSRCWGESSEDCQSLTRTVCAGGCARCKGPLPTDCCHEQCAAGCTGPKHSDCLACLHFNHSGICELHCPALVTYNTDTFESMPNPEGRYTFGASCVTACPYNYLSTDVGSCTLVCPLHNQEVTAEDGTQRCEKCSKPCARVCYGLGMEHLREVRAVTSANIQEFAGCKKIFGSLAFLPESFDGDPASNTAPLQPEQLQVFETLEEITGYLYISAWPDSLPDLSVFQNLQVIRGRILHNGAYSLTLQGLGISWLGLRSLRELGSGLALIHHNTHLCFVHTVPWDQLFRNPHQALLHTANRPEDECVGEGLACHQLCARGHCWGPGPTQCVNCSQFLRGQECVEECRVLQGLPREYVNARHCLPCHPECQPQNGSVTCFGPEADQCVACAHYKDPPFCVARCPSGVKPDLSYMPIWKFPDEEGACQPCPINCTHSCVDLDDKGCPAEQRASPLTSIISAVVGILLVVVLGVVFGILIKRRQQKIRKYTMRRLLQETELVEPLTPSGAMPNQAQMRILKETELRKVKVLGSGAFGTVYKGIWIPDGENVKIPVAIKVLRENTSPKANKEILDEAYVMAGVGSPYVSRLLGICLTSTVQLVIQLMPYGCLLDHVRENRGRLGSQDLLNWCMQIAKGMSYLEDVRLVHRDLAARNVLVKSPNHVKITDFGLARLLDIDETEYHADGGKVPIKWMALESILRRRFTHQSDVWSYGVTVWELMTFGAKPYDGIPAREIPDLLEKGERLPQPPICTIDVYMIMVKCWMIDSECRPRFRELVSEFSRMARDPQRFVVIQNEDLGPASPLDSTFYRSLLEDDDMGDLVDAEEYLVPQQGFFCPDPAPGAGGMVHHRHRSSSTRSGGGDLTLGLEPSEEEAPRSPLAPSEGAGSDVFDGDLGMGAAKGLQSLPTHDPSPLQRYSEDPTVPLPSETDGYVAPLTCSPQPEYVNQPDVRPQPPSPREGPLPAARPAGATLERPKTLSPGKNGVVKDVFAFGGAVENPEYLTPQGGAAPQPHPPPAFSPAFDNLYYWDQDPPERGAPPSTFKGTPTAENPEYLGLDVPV

Regarding `O=[N+]([O-])c1ccc2c(c1)S(=O)(=O)C=C2` [Stattic], the “lethality towards Barrett's stem cells” value in data set [1] was “displayed the lethality”. In addition, in data set [2], the “effect on Esophageal stem cells” value is “without affecting”. Further, the “selectivity over STAT1” value on STAT1 is on record as “highly selectivity”.
Turning to `CO[C@H]1CC[C@@H](O[C@H]2C[C@H]([C@]3(C)CC[C@]4(C[C@H](O)[C@@H](C)[C@@H]([C@@H](C)/C=C(\C)C(=O)[C@H](C)C[C@H](C)C(=O)O)O4)O3)O[C@]3(O[C@@H]([C@H]4O[C@@](O)(CO)[C@H](C)C[C@@H]4C)C[C@@H]3C)[C@@H]2C)O[C@H]1C` [Nanchangmycin], the “lethality of 3T3-J2 feeder cells during the treatment” value in the data set on 3T3-J2 feeder cells was “high lethality”. In addition, in data set [1], the “lethality towards Barrett's stem cells” value is “displayed the lethality”. For the same molecule, the “effect on Esophageal stem cells” value in data set [2] is reported as “without affecting”.
Take `CC(C)C[C@H](NC(=O)[C@@H](NC(=O)c1cccc(-c2ccccc2)n1)[C@@H](C)O)B(O)O` [CEP-18770, [(1R)-1-[[(2S,3R)-3-hydroxy-2-[(6-phenylpyridine-2-carbonyl)amino]butanoyl]amino]-3-methylbutyl]boronic acid]: the “eradication of BE, dysplasia and cancer stem cells in 3D (ALI) culture” value in [3] is recorded as “eradicate”. In [4], the “effect on Esophageal squamous stem cells in co-culture” value is recorded as “promoting”. In addition, the “lethality to Barrett's stem cells in co-culture” value in data set [4] (nine Barrett's stem cell lines) was “uniform lethality to all Barrett's stem cells”. Also, in data set [5] (NSG mice, with Ponatinib), the “BE stem cells in treated structures (histological analysis)” value was “not detected” and the “Krt5+ ESO structures in treated samples” value is “visibly more robust”. Moreover, the “clonogenic Barrett's stem cells from xenografts” value in data set [5] (combination with Ponatinib, clonogenic analysis) is on record as “lack of clonogenic Barrett's stem cells”. Besides, in data set [5] (combination with Ponatinib, intraperitoneally, two weeks following the treatment), the “Barrett's structures in xenografts (histology)” value was “total loss”. Also, the “differential of dose-response curves, BE stem cells versus normal esophageal stem cells” value in data set [1] (in the background of a fixed concentration of Ponatinib) is ~1,000 fold. In data set [1], the “lethality towards Barrett's stem cells” value was “displayed the lethality”. The “growth of BE, dysplasia and cancer stem cells in co-culture with ESO cells” value in data set [6] is listed as “most effective”. In data set [2], the “effect on Esophageal stem cells” value is “without affecting”. Further, the “inhibition of the tryptic and peptidylglutamyl activities of the proteosome” value in data set [7] is “only marginal inhibition”. Also, in data set [8], the “Dysplastic structures (Krt7+/Ki67+) in xenografts” value was “diminished”; the “eradication of precancerous, dysplastic and cancerous stem cells in mouse xenograft models” value was “eradicate”; the “stem cells cloned from treated dysplastic structures (rhodamine staining)” value is “not cloned”. Also, the IC50 in [9] is 3.8 nM. Besides, the IC50 in [10] was 3.8 nM. Besides, the “cross sections of the ALI structures” value in data set [11] is “intact esophageal squamous epithelium without any existence of Barrett's epithelium”. Further, the “GFP labeled Barrett's stem cells in 3D ALI co-culture” value in data set [11] (eight Barrett's stem cell lines) is on record as “disappearance”.
With `CC(C)(C)c1cc(NC(=O)Nc2ccc(-c3cn4c(n3)sc3cc(OCCN5CCOCC5)ccc34)cc2)no1` [Quizartinib], the “lethality towards Barrett's stem cells” value in data set [1] is “displayed the lethality”. Besides, the “effect on Esophageal stem cells” value in data set [2] is “without affecting”.
`N#Cc1ccc2[nH]c(O)c(-c3ccc(CN4CCOCC4)cn3)c2c1` [AZD1080]: the “lethality towards Barrett's stem cells” value in data set [1] was “displayed the lethality”. For the same molecule, the “differential effects on BE and ESO stem cells, validation over a range of dosages” value in data set [1] (together with 1 μM Ponatinib) is on record as “appeared to be the false positive hit in the screening”. The “effect on Esophageal stem cells” value in data set [2] is “without affecting”. In addition, the Ki on human GSK3α was 6.9 nM.
As to `CC(C)(C)C(=O)OCOP(=O)(COCCn1cnc2c(N)ncnc21)OCOC(=O)C(C)(C)C` [Adefovir Dipivoxil], the “lethality towards Barrett's stem cells” value in data set [1] is reported as “displayed the lethality”. The “effect on Esophageal stem cells” value in data set [2] is recorded as “without affecting”.
Take `C=CC(=O)Nc1cccc(Sc2nc(Nc3ccc(N4CCN(C)CC4)cc3)ncc2Cl)c1` [WZ8040]: the “inhibition of ERBB2 phosphorylation (T798I)” value in data set [12] is listed as “does not inhibit”. In addition, in data set [1], the “lethality towards Barrett's stem cells” value was “displayed the lethality”. In [2], the “effect on Esophageal stem cells” value is “without affecting”.
On to `Cc1ccc(C(=O)Nc2ccc(CN3CCN(C)CC3)c(C(F)(F)F)c2)cc1C#Cc1cnc2cccnn12` [Ponatinib], for which, in data set [1] (single agent screening), the “survival of Barrett's stem cells” value is on record as “slightly decreasing the survival”. In addition, the “proliferation of esophageal stem cells” value in data set [2] (single agent screening) is “promoted the proliferation; also recorded: significantly increase the proliferation”.
In the case of `CC(=O)O[C@H]1C(=O)[C@@]2(C)[C@H]([C@H](OC(=O)c3ccccc3)[C@]3(O)C[C@H](OC(=O)[C@H](O)[C@@H](NC(=O)c4ccccc4)c4ccccc4)C(C)=C1C3(C)C)[C@]1(OC(C)=O)CO[C@@H]1C[C@@H]2O` [taxol], the tumor volume result in [13] is recorded as “reducing tumor volume”. The “killing taxol-resistant ovarian stem cells” value in data set [14] is “synergy”.
